Key:
[1] = system: partial sciatic nerve ligation model in rats; assay: Analgesic effect in a Seltzer model, Evaluation (1): mechanical allodynia, von Frey filaments (Test Example 6); format: in vivo; conditions: rat Seltzer model, reversal of mechanical allodynia (von Frey), single oral administration of 1 mg/kg, at 3 hours
Text: Rats were anaesthetized using isoflurane/O2 inhalation anaesthesia. After induction of anesthesia, the left thigh was shaved. An incision was made in the skin just below the hip bone. The muscle was bluntly dissected to expose the sciatic nerve. One third (⅓) to one half (½) of the sciatic nerve thickness was tightly ligated and the wound was closed. The right thigh is used as a sham-operated control. The right thigh undergoes an identical procedure with the left hind limb, however, the sciatic nerve is not manipulated or ligated.
Two weeks after nerve ligation, the effect on mechanical allodynia was assessed using a series of von Frey filaments. For habituation, the rats were placed into a plastic cage on a wire mesh bottom. The mechanical sensitivity (mechanical threshold) of the hind paws was estimated with a series of von Frey filaments (0.4-26 g). The measurement of mechanical sensitivity of the right and left hind paws was performed to obtain predose mechanical sensitivity. […] On the day before the experiment, the rats were evaluated with a series of von Frey filaments to familiarize them with the test procedure. […] Post-dose mechanical sensitivities of the right and left hind paws were measured at approximately 1 to 5 hours after drug administration. Percent reversal of mechanical allodynia for each rat was calculated using the following formula. […]

human P2X3 receptor = human P2X3 receptor (Homo sapiens (Human), UniProt P56373); assay: Evaluation of human P2X3 receptor inhibitory activity (Test Example 1); format: cell-based; conditions: C6BU-1 cell transfected with human P2X3 receptor gene, FLIPR 384
How it was run: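 FLIPR calcium read-out: signal taken as peak fluorescence after ATP addition divided by starting fluorescence, and IC50 calculated from it. Compound added 5 min before 150 nM ATP solution (pre-dispense stock) to Fluo-3-AM-loaded C6BU-1 cells stably transfected with human P2X3; HEPES buffer pH 7.5 with probenecid.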

[2] = Metabolism stability test, pooled human hepatic microsomes (Test Example 11); format: in vitro ADME; conditions: human liver microsomes, 30 minutes, compound concentration 0.5 μmol/L
Method: Using commercially available pooled human hepatic microsomes, a test compound is reacted for a constant time, a remaining rate is calculated by comparing a reacted sample and an unreacted sample, thereby, a degree of metabolism in liver is assessed.
A reaction was performed (oxidative reaction) at 37° C. for 0 minute or 30 minutes in the presence of 1 mmol/L NADPH in 0.2 mL of a buffer (50 mmol/L tris-HCl pH 7.4, 150 mmol/L potassium chloride, 10 mmol/L magnesium chloride) containing 0.5 mg protein/mL of human liver microsomes. After the reaction, 50 μL of the reaction solution was added to 100 μL of a methanol/acetonitrile=1/1 (v/v), mixed and centrifuged at 3000 rpm for 15 minutes. The test compound in the supernatant was quantified by LC/MS/MS, and a remaining amount of the test compound after the reaction was calculated, letting a compound amount at 0 minute reaction time to be 100%.
The remaining rate at the compound concentration 0.5 μmol/L are shown below.

[3] = biological target: human ether-a-go-go related gene (hERG) channel (Homo sapiens (Human), UniProt Q12809); assay: hERG test, whole cell patch clamp in CHO cells (Test Example 13); format: cell-based; conditions: CHO cells expressing hERG channel, tail peak current, 10 minutes
Text: For the purpose of assessing risk of an electrocardiogram QT interval prolongation of the compound of the present invention, effects of the compound of the present invention on delayed rectifier K+ current (IKr), which plays an important role in the ventricular repolarization process, was studied using CHO cells expressing human ether-a-go-go related gene (hERG) channel.
After a cell was retained at a membrane potential of −80 mV by whole cell patch clamp method using an automated patch clamp system (QPatch; Sophion Bioscience A/S) and gave a leak potential of −50 mV, IKr induced by depolarization pulse stimulation at +20 mV for 2 seconds and, further, repolarization pulse stimulation at −50 mV for 2 seconds, was recorded. […] From the recording IKr, an absolute value of the tail peak current was measured based on the current value at the resting membrane potential using analysis software (Falster Patch; Sophion Bioscience A/S). Further, the % inhibition relative to the tail peak current before application of the compound of the present invention was calculated, and compared with the vehicle-applied group (0.1% dimethyl sulfoxide solution) to assess influence of the compound of the present invention on IKr.

rat P2X3 receptor = rat P2X3 receptor (Rattus norvegicus (Rat), UniProt P49654); assay: Evaluation of rat P2X3 receptor inhibitory activity (Test Example 3); format: cell-based; conditions: rat P2X3 receptor gene expressed in C6BU-1 cell; read-out: ratP2X3 IC50
Method: Rat P2X3 receptor gene (GenBank accession number NM_031075) was expressed in C6BU-1 cell. The C6BU-1 cells were seeded in a 96-well microtiter plate at a concentration of 2500 cells/well and cultured in the medium (7.0% fetal bovine serum, 7.0% horse serum, and 1% antibiotic and antifungal in DMEM) for one day at 37° C. under 5% carbon dioxide atmosphere. The plasmid was transfected into the cells using transfection reagent FuGENE6 (Promega). The transfected cells were cultured in the medium for one day at 37° C. under 5% carbon dioxide atmosphere. […] Measurement of fluorescence intensity by FDSS 3000 was started, and 40 μL of DMSO solutions containing different concentrations of the test compound as prepared by dilution with dilution buffer (20 mM HEPES, 137 mM NaCl, 5.27 mM KCl, 0.9 mM MgCl2, 1.26 mM CaCl2, 5.6 mM D-glucose, 2.5 mM probenecid, 0.1% Pluronic F-127, pH7.5) were dispensed to each well through the built-in automatic dispenser. Five minutes after, 50 nM ATP solution (50 μL) prepared by dilution with the dilution buffer was dispensed through the built-in automatic dispenser, and the measurement of fluorescence intensity was continued for 4 min. For each well, the specific maximum fluorescence intensity was calculated as the ratio of the maximum fluorescence intensity after addition of the ATP solution to the fluorescence intensity at the starting of the measurement. […]

[4] = Pharmacokinetic test: bioavailability and total body clearance (Test Example 15); format: in vivo; conditions: SD rats, from AUCs of oral and intravenous groups
Method: • (1) Animals: SD rats were used • (2) Breeding conditions: SD rats were allowed to freely take solid food and sterilized tap water. • (3) Dose and grouping: orally or intravenously administered at a predetermined dose; grouping was as follows (Dose depends on the compound)
Oral administration: 1 mg/kg (n=2)
The total body clearance (CLtot) was calculated by dividing the dose by the AUC of the intravenous administration group.

human P2X3 receptor, sequence (P56373 whole entry): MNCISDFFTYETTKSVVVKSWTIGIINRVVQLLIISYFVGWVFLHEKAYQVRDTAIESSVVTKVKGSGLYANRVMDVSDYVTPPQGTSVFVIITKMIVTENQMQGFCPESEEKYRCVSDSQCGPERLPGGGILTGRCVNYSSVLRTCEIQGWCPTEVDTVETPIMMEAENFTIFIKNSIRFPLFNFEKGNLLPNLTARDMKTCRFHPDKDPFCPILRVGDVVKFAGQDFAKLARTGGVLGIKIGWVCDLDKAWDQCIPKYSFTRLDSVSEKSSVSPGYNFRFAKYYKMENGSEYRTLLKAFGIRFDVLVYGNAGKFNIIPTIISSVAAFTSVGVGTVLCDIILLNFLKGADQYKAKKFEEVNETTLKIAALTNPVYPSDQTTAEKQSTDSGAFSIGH
human ether-a-go-go related gene (hERG) channel, sequence (Q12809 whole entry): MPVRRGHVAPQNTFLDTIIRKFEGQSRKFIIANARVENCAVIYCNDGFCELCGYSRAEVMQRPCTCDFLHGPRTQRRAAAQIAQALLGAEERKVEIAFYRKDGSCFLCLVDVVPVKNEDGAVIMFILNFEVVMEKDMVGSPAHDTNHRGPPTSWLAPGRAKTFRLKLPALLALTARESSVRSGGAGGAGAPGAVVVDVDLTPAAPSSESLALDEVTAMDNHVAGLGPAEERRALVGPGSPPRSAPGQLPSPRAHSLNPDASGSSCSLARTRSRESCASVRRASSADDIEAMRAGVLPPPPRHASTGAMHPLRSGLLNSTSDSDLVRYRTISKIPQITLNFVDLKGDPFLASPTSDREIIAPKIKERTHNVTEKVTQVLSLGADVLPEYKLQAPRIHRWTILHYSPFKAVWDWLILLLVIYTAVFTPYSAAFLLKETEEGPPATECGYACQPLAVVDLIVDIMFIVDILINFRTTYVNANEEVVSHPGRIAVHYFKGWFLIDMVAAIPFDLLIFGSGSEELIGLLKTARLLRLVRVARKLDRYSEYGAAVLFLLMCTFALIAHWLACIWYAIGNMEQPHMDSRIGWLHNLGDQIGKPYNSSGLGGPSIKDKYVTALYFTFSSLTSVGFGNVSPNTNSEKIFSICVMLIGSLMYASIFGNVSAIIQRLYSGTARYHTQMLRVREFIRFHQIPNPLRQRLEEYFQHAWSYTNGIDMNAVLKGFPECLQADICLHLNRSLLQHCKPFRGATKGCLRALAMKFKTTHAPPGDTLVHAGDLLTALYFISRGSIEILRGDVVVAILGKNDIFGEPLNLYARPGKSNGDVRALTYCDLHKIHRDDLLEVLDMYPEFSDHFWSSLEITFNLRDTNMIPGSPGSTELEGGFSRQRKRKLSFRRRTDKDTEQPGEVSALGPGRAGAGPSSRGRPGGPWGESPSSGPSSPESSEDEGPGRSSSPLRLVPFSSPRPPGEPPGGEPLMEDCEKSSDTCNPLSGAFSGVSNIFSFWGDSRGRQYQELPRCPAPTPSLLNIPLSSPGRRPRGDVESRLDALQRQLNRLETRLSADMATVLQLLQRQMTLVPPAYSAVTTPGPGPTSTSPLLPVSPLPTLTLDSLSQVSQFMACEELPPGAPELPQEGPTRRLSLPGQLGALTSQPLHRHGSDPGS
rat P2X3 receptor, sequence (P49654 whole entry): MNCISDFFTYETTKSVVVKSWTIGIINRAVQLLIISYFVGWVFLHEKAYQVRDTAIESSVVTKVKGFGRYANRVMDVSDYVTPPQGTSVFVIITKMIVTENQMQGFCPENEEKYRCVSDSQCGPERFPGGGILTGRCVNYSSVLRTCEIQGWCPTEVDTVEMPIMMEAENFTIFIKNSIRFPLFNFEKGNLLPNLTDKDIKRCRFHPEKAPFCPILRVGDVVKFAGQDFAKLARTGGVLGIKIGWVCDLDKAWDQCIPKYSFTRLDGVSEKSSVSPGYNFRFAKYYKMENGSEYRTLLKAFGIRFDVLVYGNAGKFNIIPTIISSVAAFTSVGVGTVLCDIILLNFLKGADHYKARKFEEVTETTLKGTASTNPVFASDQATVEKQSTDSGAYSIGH

Row | SMILES | % reversal [1] [%] | IC50 (human P2X3 receptor) [nM] | Metabolism Stability (remaining rate) [2] [%] | hERG Inhibition [3] [%] | IC50 (rat P2X3 receptor) [nM] | BA [4] [%]
1 | O=c1[nH]/c(=N\c2ccc(Oc3ccc(F)cn3)cc2)n(Cc2ccc(Cl)cc2)c(=O)n1[C@H]1C[C@H](C(=O)O)C1 [Compound I-019] | 27.9 | 7 | 96 | – | – | –
2 | CC(C)(Cn1c(=O)[nH]/c(=N\c2ccc(Oc3ccc(Cl)cn3)cc2)n(Cc2ccc(Cl)cc2)c1=O)C(=O)O [Compound I-006] | – | 5 | – | 5.3 | – | –
3 | C[C@@H](C(=O)O)[C@H](C)n1c(=O)[nH]/c(=N\c2ccc(Oc3ccc(F)cn3)c(F)c2)n(Cc2ccc(Cl)cc2)c1=O [Compound I-002] | – | 5 | 99 | 7.3 | 6 | –
4 | Cc1ccc(Cn2c(=O)n(C[C@H](C)C(=O)O)c(=O)[nH]/c2=N\c2ccc(Oc3cccc(F)n3)cc2)cc1 [Compound I-057] | 21.4 | 5 | 91 | – | – | 66.4
